According to patent US10988462B2, “Pyrazole compounds substituted with heteroaryl and pharmaceutical use thereof” (Japan Tobacco Inc., priority 2018, dated 2021):

How the values were obtained:
[1] = test system: Salmonella typhimurium TA98; assay: Ames test (reverse mutation test), pre-incubation method, strain TA98; conditions: TA98; in the presence of S9 mix
Description: (§1) Ames Test (Reverse Mutation Test)
(§2) Metabolites 1 to 3 and Metabolites A to E were each tested herein. The purpose of this test is to evaluate the potential of each metabolite to induce reverse mutations in the standard strains of Salmonella typhimurium (TA98, TA1537, TA100, and TA1535) and Escherichia coli (WP2uvrA), in either the presence or absence of a rat liver metabolic activation system (S9 mix).
(§3) The solvent used herein was dimethyl sulfoxide (DMSO, 100 μL/plate).
(§4) The test was performed by the pre-incubation method with or without S9 mix. When the test was performed without S9 mix, sodium phosphate buffer solution (pH 7.4) was added.
(§5) 0.5 mL of S9 mix or 0.5 mL of 0.1 mol/L sodium phosphate buffer solution (pH 7.4), and 0.1 mL of the bacterial culture solution were added to a test tube containing 0.1 mL of the negative control formulation (DMSO alone), the metabolite, or the positive control formulation. The mixtures were pre-incubated at 37° C. for 20 minutes while shaking. After the pre-incubation period, 2 mL of top agar were added and the mixtures were vortex-mixed and seeded onto plates. Two plates per treatment were used. Each plate was incubated at 37±1° C. for 48 hours or more and the revertant colonies were counted. The mean number of revertant colonies for each treatment plate was then calculated. The presence or absence of growth inhibition due to any antibacterial effect of the test article and precipitation of the test article was observed grossly or under a stereomicroscope. […] Evaluation was based on mean values with no statistical comparisons being used.

[2] = test system: Salmonella typhimurium TA1537; assay: Ames test (reverse mutation test), pre-incubation method, strain TA1537; assay type: cell-based; conditions: TA1537
Description: as §1, §2, §3, §4, §5

[3] = test system: Salmonella typhimurium TA100; assay: Ames test (reverse mutation test), pre-incubation method, strain TA100; assay type: cell-based; conditions: TA100; in the presence of S9 mix
Description: as §1, §2, §3, §4, §5

[4] = test system: Salmonella typhimurium TA1535; assay: Ames test (reverse mutation test), pre-incubation method, strain TA1535; assay type: cell-based; conditions: TA1535
Description: as §1, §2, §3, §4, §5

Escherichia coli WP2uvrA = assay: Ames test (reverse mutation test), pre-incubation method, strain WP2uvrA; assay type: cell-based; conditions: WP2uvrA; in the absence of S9 mix
Description: as §1
Two plates per treatment were used.

Row | Structure (SMILES) | potential to induce reverse mutations [1] | potential to induce reverse mutations ([2]; in the absence of S9 mix) | potential to induce reverse mutations ([2]; in the presence of S9 mix) | potential to induce reverse mutations [3] | potential to induce reverse mutations ([4]; in the presence of S9 mix) | potential to induce reverse mutations (Escherichia coli WP2uvrA) | potential to induce reverse mutations ([4]; in the absence of S9 mix)
1 | Nc1cc(-c2cccc(OCC(F)(F)F)c2)n(-c2ccc(F)cc2)n1 [Metabolite B, reference compound] | had potential to induce reverse mutations | had potential to induce reverse mutations | had potential to induce reverse mutations | had potential to induce reverse mutations | had potential to induce reverse mutations |  | 
2 | Cc1ccc(-n2nc(N)cc2-c2cccc(OCC(F)(F)F)c2)cc1 [Metabolite C, reference compound] | had potential to induce reverse mutations |  | had potential to induce reverse mutations | had potential to induce reverse mutations |  | had potential to induce reverse mutations | 
3 | Nc1cc(-c2cccc(OC(F)(F)F)c2)n(-c2cccc(F)c2)n1 [Metabolite D, reference compound] |  |  |  | had potential to induce reverse mutations |  |  | had potential to induce reverse mutations
4 | Cc1cccc(-n2nc(N)cc2-c2cccc(OC(F)(F)F)c2)c1 [Metabolite E, reference compound] | had potential to induce reverse mutations |  | had potential to induce reverse mutations | had potential to induce reverse mutations |  |  | 
